Common to all, as to type: in vivo
Test [1] has as its system diamondback moth (Plutella xylostella (L.)). As to the kind of experiment: Test A: control of diamondback moth on mustard plant, spray. Conditions: sprayed at 250 ppm; assessed after 6 days. On the procedure: (§1) Test compounds were formulated using a solution containing 10% acetone, […] and 300 ppm Activator 909 non-ionic surfactant (Loveland Products, Loveland, Colorado, USA). The formulated compounds were applied in 1 mL of liquid through an atomizer nozzle positioned 1.27 cm (0.5 inches) above the top of each test unit. Test compounds were sprayed at the rates indicated, and each test was replicated three times.
For evaluating control of diamondback moth (Plutella xylostella (L.)) the test unit consisted of a small open container with a 12-14-day-old mustard plant inside. This was pre-infested with ˜50 neonate larvae that were dispensed into the test unit via corn cob grits using an inoculator. The larvae moved onto the test plant after being dispensed into the test unit.
Test compounds were formulated and sprayed at 250 ppm. After spraying of the formulated test compound, each test unit was allowed to dry for 1 hour and then a black, screened cap was placed on top. The test units were held for 6 days in a growth chamber at 25° C. and 70% relative humidity. Plant feeding damage was then visually assessed based on foliage consumed, and larvae were assessed for mortality.

The test system of test [2] is corn planthopper (Peregrinus maidis (Ashmead)). Kind of test: whole plant or invertebrate. Conditions: Peregrinus maidis, 144 h, 6 days; for mortality at 50 ppm: sprayed at 50 ppm; for mortality at 250 ppm: sprayed at 250 ppm; for mortality at 10 ppm: sprayed at 10 ppm. The protocol: as §1
For evaluating control of corn planthopper (Peregrinus maidis (Ashmead)) through contact and/or systemic means, the test unit consisted of a small open container with a 3-4-day-old corn (maize) plant inside. White sand was added to the top of the soil prior to application of the test compound.
Test compounds were formulated and sprayed at 250 and/or 50 ppm and/or 10 ppm. After spraying of the formulated test compound, the test units were allowed to dry for 1 h before they were post-infested with ˜15-20 nymphs (18-to-21-day-old). A black, screened cap was placed on the top of each test unit, and the test units were held for 6 days in a growth chamber at 22-24° C. and 50-70% relative humidity. Each test unit was then visually assessed for insect mortality.

The subject of test [3] is green peach aphid (Myzus persicae (Sulzer)). As to the kind of experiment: Test D: control of green peach aphid on radish plant, spray. To be noted: Myzus persicae, 144 h, 6 days; for mortality at 250 ppm: sprayed at 250 ppm; for mortality at 50 ppm: sprayed at 50 ppm. The protocol: as §1
For evaluating control of green peach aphid (Myzus persicae (Sulzer)) through contact and/or systemic means, the test unit consisted of a small open container with a 12-15-day-old radish plant inside. This was pre-infested by placing on a leaf of the test plant 30-40 aphids on a piece of leaf excised from a culture plant (cut-leaf method). The aphids moved onto the test plant as the leaf piece desiccated. After pre-infestation, the soil of the test unit was covered with a layer of sand.
[…] After spraying of the formulated test compound, each test unit was allowed to dry for 1 hour and then a black, screened cap was placed on top. The test units were held for 6 days in a growth chamber at 19-21° C. and 50-70% relative humidity. Each test unit was then visually assessed for insect mortality.

For test [4], the system named is cotton melon aphid (Aphis gossypii (Glover)). As to the kind of experiment: whole plant or invertebrate. To be noted: Aphis gossypii, 144 h, 6 days; for mortality at 50 ppm: sprayed at 50 ppm; for mortality at 250 ppm: sprayed at 250 ppm. On the procedure: as §1
[…] This was pre-infested with 30-40 insects on a piece of leaf according to the cut-leaf method, and the soil of the test unit was covered with a layer of sand.
Test compounds were formulated and sprayed at 250 and/or 50 ppm. After spraying, the test units were maintained in a growth chamber for 6 days at 19° C. and 70% relative humidity. Each test unit was then visually assessed for insect mortality.

Test [5] relates to sweetpotato whitefly (Bemisia tabaci (Gennadius)). Kind of test: Test F: control of sweetpotato whitefly on cotton plant, spray. To be noted: 312 h, 13 days; for mortality at 250 ppm: sprayed at 250 ppm; for mortality at 50 ppm: sprayed at 50 ppm. The protocol: as §1
For evaluating control of the sweetpotato whitefly (Bemisia tabaci (Gennadius)) through contact and/or systemic means, the test unit consisted of a small open container with a 12-14-day-old cotton plant inside. Prior to the spray application, both cotyledons were removed from the plant, leaving one true leaf for the assay. Adult whiteflies were allowed to lay eggs on the plant and then were removed from the test unit. Cotton plants infested with at least 15 eggs were submitted to the test for spraying.
Test compounds were formulated and sprayed at 250 and/or 50 ppm. After spraying, the test units were allowed to dry for 1 hour. The cylinders were then removed, and the units were taken to a growth chamber and held for 13 days at 28° C. and 50-70% relative humidity. Each test unit was then visually assessed for insect mortality.

`Cc1noc(-c2cncc(Cl)c2C(F)c2ccc([S+]([O-])C(F)(F)F)cc2)n1` (mixture of isomers) [Compound 104]: the “control efficacy (40% or less feeding damage and/or 100% mortality)” value in test [1] is recorded as “very good to excellent levels of control efficacy”.
Still for that read-out and setting: the value for `Cc1noc(-c2cncc(F)c2C(F)c2ccc(OC(F)(F)F)cc2)n1` (racemic) [Compound 39] was “very good to excellent levels of control efficacy”.
As for `FC(c1ccc(OC(F)(F)F)cc1)c1ccncc1-n1cncn1` (stereo not drawn) [Compound 12], the mortality at 50 ppm in test [2] and in test [4] was at least 80% each time. The mortality (in general, the share of the test organisms that died) at 250 ppm in test [2] is at least 80%; in test [3], at least 80%; in test [4], at least 80%; in test [5], at least 70%.
On to `FC(c1ccc(OC(F)(F)F)cc1)c1c(Cl)cncc1-n1cncn1` (stereo not drawn) [Compound 15], for which the mortality at 50 ppm in test [2] and in test [3] was at least 80% throughout. Further, the mortality at 250 ppm in test [2] was at least 80%; in test [3] it was at least 80%; in test [5], at least 70%.
For the molecule `FC(c1ccc(OC(F)(F)F)cc1)c1c(Br)cncc1-n1nccn1` (stereo not drawn) [Compound 17], the mortality at 50 ppm in test [2], in test [3] and in test [4] was at least 80% throughout. Moreover, the mortality at 250 ppm in test [2] was at least 80%; in test [3], at least 80%; in test [4], at least 80%; in test [5] it was at least 70%.
For `[O-][S+](c1ccc(C(F)c2c(F)cncc2-n2nccn2)cc1)C(F)(F)F` (stereo not drawn) [Compound 67, 3-fluoro-4-[fluoro-[4-(trifluoromethylsulfinyl)phenyl]methyl]-5-(triazol-2-yl)pyridine], the mortality at 50 ppm in test [2], in test [3] and in test [4] was at least 80% throughout. The mortality at 250 ppm in test [2] is at least 80%; in test [3], at least 80%; in test [4] it was at least 80%; in test [5], at least 70%.
As for `COC(c1ccc(SC(F)(F)F)cc1)c1c(F)cncc1-n1cccn1` (stereo not drawn) [Compound 70], the mortality at 10 ppm in test [2] is at least 80%. For the same molecule, the mortality at 50 ppm in test [2] and in test [4] was at least 80% each time. Further, the mortality at 250 ppm in test [2], in test [3] and in test [4] was at least 80% each time.
Take `COC(c1ccc(SC(F)(F)F)cc1)c1c(F)cncc1-n1cncn1` (stereo not drawn) [Compound 71]: the mortality at 50 ppm is at least 80% in test [3], at least 80% in test [4] and at least 70% in test [5]. Further, the mortality at 250 ppm is at least 80% in test [3], at least 80% in test [4] and at least 70% in test [5].
For `Fc1cncc(-c2nccs2)c1C(F)c1ccc(SC(F)(F)F)cc1` (stereo not drawn) [Compound 77], the mortality at 50 ppm in test [2] was at least 80%. Besides, the mortality at 250 ppm in test [2], in test [3] and in test [4] was at least 80% each time.
On to `COC(c1ccc(SC(F)(F)F)cc1)c1c(F)cncc1-c1ncon1` (stereo not drawn) [Compound 83, 3-[5-fluoro-4-[methoxy-[4-(trifluoromethylsulfanyl)phenyl]methyl]-3-pyridyl]-1,2,4-oxadiazole], for which the mortality at 50 ppm in test [2] and in test [4] was at least 80% in each case. Moreover, the mortality at 250 ppm in test [2], in test [3] and in test [4] was at least 80% throughout.
Consider `FC(c1ccc(SC(F)(F)F)cc1)c1c(Br)cncc1-n1nccn1` (stereo not drawn) [Compound 86], for which the mortality at 50 ppm in test [2], in test [3] and in test [4] was at least 80% each time. Moreover, the mortality at 250 ppm in test [2], in test [3] and in test [4] was at least 80% in each case.
In the case of `FC(c1ccc(OC(F)(F)F)cc1)c1c(Cl)cncc1-n1cccn1` (stereo not drawn) [Compound 88], the mortality at 50 ppm in test [2] was at least 80%; in test [4], at least 80%; in test [5], at least 70%. In addition, the mortality at 250 ppm was at least 80% in test [2], at least 80% in test [3], at least 80% in test [4] and at least 70% in test [5].
In the case of `[O-][S+](c1ccc(C(F)c2c(Cl)cncc2-n2nccn2)cc1)C(F)(F)F` (stereo not drawn) [Compound 90], the mortality at 50 ppm in test [2] is at least 80%; in test [3], at least 80%; in test [4], at least 80%; in test [5] it was at least 70%. The mortality at 250 ppm was at least 80% in test [2], at least 80% in test [3], at least 80% in test [4] and at least 70% in test [5].
As to `O=S(=O)(c1ccc(C(F)c2c(Cl)cncc2-n2nccn2)cc1)C(F)(F)F` (stereo not drawn) [Compound 91], the mortality at 50 ppm is at least 80% in test [3], at least 80% in test [4] and at least 70% in test [5]. In addition, the mortality at 250 ppm in test [3] is at least 80%; in test [4], at least 80%; in test [5], at least 70%.
In turn, `FC(c1ccc(SC(F)(F)F)cc1)c1c(I)cncc1-n1nccn1` (stereo not drawn) [Compound 95] came in with a mortality at 10 ppm in test [2] of at least 80%. Besides, the mortality at 50 ppm in test [2] is at least 80%; in test [3], at least 80%; in test [4] it was at least 80%; in test [5], at least 70%. For the same molecule, the mortality at 250 ppm is at least 80% in test [2], at least 80% in test [3], at least 80% in test [4] and at least 70% in test [5].
Consider `Fc1cncc(C2OCCO2)c1C(F)c1ccc(SC(F)(F)F)cc1` (stereo not drawn) [Compound 96], for which the mortality at 10 ppm in test [2] was at least 80%. In addition, the mortality at 50 ppm in test [2] and in test [4] was at least 80% in each case. In addition, the mortality at 250 ppm in test [2], in test [3] and in test [4] was at least 80% in each case.
On to `CC(C)(C)c1ccc(C(F)c2c(Br)cncc2-n2nccn2)cc1` (stereo not drawn) [Compound 108], for which the mortality at 50 ppm in test [2] was at least 80%; in test [5] it was at least 70%. Besides, the mortality at 250 ppm is at least 80% in test [2] and at least 70% in test [5].
In test [2], `FC(c1ccc(Br)cc1)c1c(Cl)cncc1-n1nccn1` (stereo not drawn) [Compound 109] displayed a mortality at 10 ppm of at least 80%, a mortality at 50 ppm of at least 80% and a mortality at 250 ppm of at least 80%. In test [4], this molecule registered a mortality at 50 ppm of at least 80% and a mortality at 250 ppm of at least 80%. In test [5], this molecule had a mortality at 50 ppm of at least 70% and a mortality at 250 ppm of at least 70%.
In the case of `COC(c1ccc(Br)cc1)c1c(F)cncc1-n1nccn1` (stereo not drawn) [Compound 117], in test [5], the mortality at 50 ppm is at least 70% and the mortality at 250 ppm is at least 70%.
`COC(c1ccc(SC(F)(F)F)cc1)c1c(Cl)cncc1-n1nccn1` (stereo not drawn) [Compound 127] registered a mortality at 10 ppm in test [2] of at least 80%. For the same molecule, the mortality at 50 ppm was at least 80% in test [2], at least 80% in test [3], at least 80% in test [4] and at least 70% in test [5]. Further, the mortality at 250 ppm was at least 80% in test [2], at least 80% in test [3], at least 80% in test [4] and at least 70% in test [5].
As to `COC(c1ccc(SC(F)(F)F)cc1)c1c(Br)cncc1-n1ccnn1` (stereo not drawn) [Compound 134], in test [5], the mortality at 50 ppm was at least 70% and the mortality at 250 ppm is at least 70%.

These data come from patent US12568969B2, “Pyridine compounds for controlling invertebrate pests” (FMC Corporation, priority 2020, dated 2026).
